These results are taken from patent US20020094522A1, “Means and methods for monitoring non-nucleoside reverse transcriptase inhibitor antiretroviral therapy and guiding therapeutic decisions in the treatment of HIV/AIDS” (priority 2000, published 2002).

One test relates to L100I-K103N-Y188L-RTV. Kind of test: Phenotypic susceptibility assay, L100I-K103N-Y188L-RTV. The format is cell-based, HIV-1. Conditions: site directed mutant. Here is the method: (§1) The resistance test vectors containing a functional luciferase gene cassette were constructed and host cells were transfected with the resistance test vector DNA. The resistant test vectors contained patient-derived reverse transcriptase and protease sequences that were either susceptible or resistant to the antiretroviral agents, such as nucleoside reverse transcriptase inhibitors, non-nucleoside reverse transcriptase inhibitors and protease inhibitors. […] The IC50 values were determined by plotting percent drug inhibition vs. log10 drug concentration.
(§2) Host cells were seeded in 10-cm-diameter dishes and were transfected several days after plating with resistance test vector plasmid DNA and the envelope expression vector. […] HIV capsid protein (p24) levels in the harvested cell culture media were determined by an EIA method as described by the manufacturer (SIAC; Frederick, Md.). […] The inhibitory effect of the drug was determined using the following equation: […]
(§3) The mutations Y188L, L100I and K103N were introduced alone and in combinationn into resistance test vectors using the mega-primer method for site-directed mutagenesis (Sakar and Sommar, Ibid.). […] We determined the pattern of phenotypic susceptibility to the NNRTIs, delavirdine, nevlrapine and efavirenz, in all 6 vectors.

The subject of test [1] is Y188H-RTV (HIV reverse transcriptase Y188H). An excerpt: (§4) The resistance test vectors containing a functional luciferase gene cassette were constructed and host cells were transfected with the resistance test vector DNA. The resistant test vectors contained patient-derived reverse transcriptase and protease sequences that were either susceptible or resistant to the antiretroviral agents, such as nucleoside reverse transcriptase inhibitors, non-nucleoside reverse transcriptase inhibitors and protease inhibitors. The resistance test vector viral particles produced by transfecting the resistance test vector DNA into host cells, either in the presence or absence of protease inhibitors, were used to infect target host cells grown either in the absence of NRTI or NNRTI or in the presence of increasing concentrations of the drug. The amount of luciferase activity produced in infected target host cells in the presence of drug was compared to the amount of luciferase produced in infected target host cells in the absence of drug. Drug resistance was measured as the amount of drug required to inhibit by 50% the luciferase activity detected in the absence of drug (inhibitory concentration 50%, IC50). The IC50 values were determined by plotting percent drug inhibition vs. log10 drug concentration.
Host cells were seeded in 10-cm-diameter dishes and were transfected several days after plating with resistance test vector plasmid DNA and the envelope expression vector. Transfections were performed using a calcium-phosphate precipitation procedure. The cell culture media containing the DNA precipitate was replaced with fresh medium, from one to 24 hours, after transfection. Cell culture media containing resistance test vector viral particles was harvested one to four days after transfection and was passed through a […] filter before being stored at −80° C. HIV capsid protein (p24) levels in the harvested cell culture media were determined by an EIA method as described by the manufacturer (SIAC; Frederick, Md.). Before infection, target cells (293 and 293/T) were plated in cell culture media. Control infections were performed using cell culture media from mock transfections (no DNA) or transfections containing the resistance test vector plasmid DNA without the envelope expression plasmid. One to three or more days after infection the media was removed and cell lysis buffer (Promega) was added to each well. […] The inhibitory effect of the drug was determined using the following equation: […]
where RLUluc [drug] is the relative light unit of luciferase activity in infected cells in the presence of drug and RLUluc is the Relative Light Unit of luciferase activity in infected cells in the absence of drug. IC50 values were obtained from the sigmoidal curves that were generated from the data by plotting the percent inhibition of luciferase activity vs. the log10 drug concentration.

Test [2] has as its system RTV-757 (patient sample 98-757). Put plainly: Phenotypic susceptibility assay, RTV-757. Format: cell-based, HIV-1. To be noted: RTV-757, same patient after additional 8 weeks of treatment. Here is the method:
(§5) Transfections were performed using a calcium-phosphate precipitation procedure. […] Cell lysates were assayed for luciferase activity (FIG. 3).
(§6) The drug inhibition curves are shown in (FIG. 3).
A resistance test vector was constructed as described in Example 1 from a patient sample designated 98-1033. […] Isolation of viral RNA and RT/PCR was used to generate a patient derived segment that comprised viral sequences coding for all of PR and aa 1-313 of RT. The PDS was inserted into an indicator gene viral vector to generate resistance test vectors designated RTV-1033 and RTV-757. RTV-1033 and RTV-757 were then tested in a phenotypic assay to determine accurately and quantitatively the level of susceptibility to a panel of anti-retroviral drugs. […] An IC50 was determined for the resistance test vector pool for each drug tested. The pattern of susceptibility to all of the drugs tested was examined and compared to known patterns of susceptibility.

In test [3] the test system is RTV-955 (patient sample 98-955). Kind of test: Phenotypic susceptibility assay, RTV-955. Format: cell-based, HIV-1. To be noted: RTV-955, patient-derived pool. Here is the method:
as §5, §6
(§7) A resistance test vector was constructed as described in Example 1 from a patient sample designated 98-955. This patient had been previously treated with nelfinavir (a PRI) Isolation of viral RNA and RT/PCR was used to generate a patient derived segment that comprised viral sequences coding for all of PR and aa 1-313 of RT. The PDS was inserted into an indicator gene viral vector to generate a resistance test vectors designated RTV-955. RTV-955 was then tested in a phenotypic assay to determine accurately and quantitatively the level of susceptibility to a panel of anti-retroviral drugs. […] An IC50 was determined for the resistance test vector pool for each drug tested. The pattern of susceptibility to all of the drugs tested was examined and compared to known patterns of susceptibility.

For another test, the system named is K103N-Y188L-RTV. Put plainly: Phenotypic susceptibility assay, K103N-Y188L-RTV. Format: cell-based, HIV-1. To be noted: site directed mutant. How it is done:
as §1, §2, §3

A further test has as its system L100I-K103N-RTV. Kind of test: Phenotypic susceptibility assay, L100I-K103N-RTV. The format is cell-based, HIV-1. To be noted: site directed mutant. How it is done: as §1, §2, §3
Test [4] relates to RTV-652 (patient sample 98-652). The format is cell-based, HIV-1. Conditions: values <1 = increased susceptibility.
Description: as §4, with “The amount of luciferase activity produced in infected target host cells in the presence of drug was compared to the amount of luciferase produced in infected target host cells in the absence of drug. Drug resistance was measured as the amount of drug required to inhibit by 50% the luciferase activity detected in the absence of drug (inhibitory concentration 50%, IC50).” left out
as §2
An IC50 was determined for the resistance test vector pool for each drug tested.

The test system of test [5] is RTV-300 (patient sample 97-300). Kind of test: Phenotypic susceptibility assay, RTV-300. Format: cell-based, HIV-1. To be noted: RTV-300, patient-derived pool. How it is done: as §5, §6
as §7, with “designated 97-300.” for “designated 98-955.”, “with d4T and 3TC (NRTIs), indinavir” for “with nelfinavir”, “PRI) and efavirenz (an NNRTI).” for “PRI)”, “test vector” for “test vectors”, “designated RTV-300. RTV-300” for “designated RTV-955. RTV-955”, “the drug” for “the drugs”

The test system of test [6] is Tyr181Cys (Y181C) mutation variant. Conditions: Y181C variant selected during nevirapine monotherapy; cited from earlier work.

In the case of `Cc1ccnc2c1NC(=O)c1cccnc1N2C1CC1` [nevirapine], the “fold loss of susceptibility compared to wild type control RTV” value with L100I-K103N-Y188L-RTV is “greater than 800 fold”; in [1], 3.5 fold; in the test on K103N-Y188L-RTV it was “greater than 800 fold”; with L100I-K103N-RTV, 70 fold. Further, the “fold decrease in susceptibility (IC50)” value in test [2] is “greater than 800 fold”; in [3], 530 fold; in [5] it was “greater than 800 fold”. Besides, the “fold change in susceptibility (IC50)” value in [4] turned out to be 5 fold. Besides, in test [6], the reduction in sensitivity is on record as 100 fold.
For the molecule `CC(C)Nc1cccnc1N1CCN(C(=O)c2cc3cc(NS(C)(=O)=O)ccc3[nH]2)CC1` [delavirdine], the “fold decrease in susceptibility (IC50)” value in [2] stood at 10 fold; in [3], 4 fold; in test [5] it was 25 fold. For the same molecule, the “fold change in susceptibility (IC50)” value in test [4] is on record as 0.97 fold.
